Data taken from US20230095520A1, “PHARMACEUTICAL COMPOSITION FOR PREVENTING OR TREATING CANCER COMPRISING AZOLE DERIVATIVES OR PHARMACEUTICALLY ACCEPTABLE SALT THEREOF” (Yungjin Pharm. Co., Ltd., priority 2020, published 2023).
Values belong to the compound of their own block, whether it stands above or below them.

What was measured:
MDA-MB-468 cells = assay: MDA-MB-468 cell proliferation inhibition (MTT); assay type: cell-based; settings: for Inhibition rate (%): MDA-MB-468, compound concentration 100 nM; for IC50: MDA-MB-468 proliferation
Protocol: MDA-MB-468 cells are one of the triple-negative breast cancer (TNBC: negative for the expression of estrogen receptor, progesterone receptor and HER2) cells known as a malignant tumor that is difficult to diagnose at an early stage and has a high metastatic capacity, and these cells are used to test inhibition of proliferation and survival of breast cancer cells.
MDA-MB-468 cells cultured in a 96-well cell culture plate were treated with the compound of the present invention and cultured for 72 hours. Thereafter, the antiproliferative effect of the compound was assayed by the MTT method using a tetrazolium salt.

MV-4-11 cells = assay: MV-4-11 cell proliferation inhibition (CCK-8); assay type: cell-based; settings: 72 hours; for Inhibition rate (%): MV-4-11, compound concentration 100 nM; for IC50: MV4-11, MV-4-11 proliferation
Summary of the method: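 The FLT3-mutant AML line MV-4-11 was exposed to compound for 72 h. Antiproliferative effect was read with the tetrazolium-based CCK-8 method.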

[1] = molecular target: T1, Recombinant purified human CDK7 (Homo sapiens, UniProt P50613); assay: CDK7 activity inhibition, ADP-Glo kinase assay; assay type: biochemical; settings: ATP 90 μM, MBP substrate, 2 hours 30° C.
T1 construct: purchased ThermoFisher PV3868
T1 sequence (P50613 whole entry): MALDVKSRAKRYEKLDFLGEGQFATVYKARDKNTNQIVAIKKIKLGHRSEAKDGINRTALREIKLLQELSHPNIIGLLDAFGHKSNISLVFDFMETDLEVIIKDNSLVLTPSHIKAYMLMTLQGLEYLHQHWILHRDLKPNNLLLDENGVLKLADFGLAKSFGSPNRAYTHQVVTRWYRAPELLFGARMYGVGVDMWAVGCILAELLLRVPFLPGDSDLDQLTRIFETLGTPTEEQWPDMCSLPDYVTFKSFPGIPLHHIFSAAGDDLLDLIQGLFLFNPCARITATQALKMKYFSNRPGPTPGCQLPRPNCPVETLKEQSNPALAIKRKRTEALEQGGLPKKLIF
T1 sequence (P51946 whole entry partner): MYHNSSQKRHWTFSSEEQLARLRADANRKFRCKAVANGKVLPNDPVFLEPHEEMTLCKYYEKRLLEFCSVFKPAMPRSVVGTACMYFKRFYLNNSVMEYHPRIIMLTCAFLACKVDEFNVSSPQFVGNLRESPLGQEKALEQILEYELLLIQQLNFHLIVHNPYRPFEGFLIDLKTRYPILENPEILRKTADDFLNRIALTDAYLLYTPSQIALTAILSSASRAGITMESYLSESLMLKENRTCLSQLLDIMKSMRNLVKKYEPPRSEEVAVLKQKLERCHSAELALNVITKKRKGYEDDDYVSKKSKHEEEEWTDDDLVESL
T1 sequence (P51948 whole entry partner): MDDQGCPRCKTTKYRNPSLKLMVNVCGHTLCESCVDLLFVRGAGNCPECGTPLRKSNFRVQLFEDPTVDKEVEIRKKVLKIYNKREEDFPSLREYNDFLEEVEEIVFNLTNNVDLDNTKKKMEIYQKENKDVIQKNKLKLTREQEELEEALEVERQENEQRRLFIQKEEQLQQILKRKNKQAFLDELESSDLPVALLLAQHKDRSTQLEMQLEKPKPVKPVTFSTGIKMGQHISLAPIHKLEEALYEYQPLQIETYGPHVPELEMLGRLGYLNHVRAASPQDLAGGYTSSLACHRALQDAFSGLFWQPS
Protocol: Recombinant purified human CDK7 (ThermoFisher, PV3868) and ADP Glo Kinase Assay Kit (Promega, V9102) were used. CDK7 was diluted with 1× kinase reaction buffer (40 mM Tris-Cl, pH 7.5, 20 mM MgCl2, 0.1 mg/ml BSA and 50 μM DTT) and added to a 96 well plate (CDK7 final concentration per reaction: 50 ng). It was finally treated with the compound of the present invention to a 1% DMSO aqueous solution, and a substrate cocktail containing ATP (final concentration of 90 μM) and 0.2 μg/μl MBP (myelin basic protein) in a total of 25 μl reaction mass was added to a 96 well plate, thereby initiating the enzymatic reaction. After 2 hours of incubation (30° C.), an equal volume (25 μl per reaction) of ADP Glo was added and incubated at room temperature for 60 minutes (30° C.). Thereafter, kinase detection reagent (50 μl per reaction) was added and incubated at room temperature for 30 minutes (30° C.). The kinase activity was measured by the chemiluminescence method according to the ADP Glo Kinase Assay Kit instruction manual, and the CDK7 inhibitory activity of the compounds of the present invention was calculated.

HepG2 cells = assay: HepG2 cell proliferation inhibition (CCK-8); assay type: cell-based; settings: Homo sapiens, HepG2, 72 h
Protocol: HepG2 cells are human hepatocellular carcinoma cells. In order to evaluate the efficacy of inhibiting the proliferation in HepG2 cells, HepG2 cells were treated with the compounds of the present invention, and the proliferation level was measured as follows.
The cells were cultured with a culture medium of MEM (Welgene)+10% FBS (Gibco)+1% penicillin/streptomycin (Gibco) at 37° C. in a humidified condition in the presence of 5% CO2. HepG2 cells cultured in a 96-well cell culture plate were treated with the compound of the present invention and cultured for 72 hours.

Hep3B = assay: Cancer cell proliferation GI50 (CCK-8); assay type: cell-based; settings: liver cancer, 72 hours
Protocol: (§1) The proliferation effect of SY-1365, which is known to have a proliferation inhibitory effect on various carcinoma cells, and the compound of the present invention on various cancer cells was measured and compared as GI50 (half maximal growth inhibitory concentration, the concentration at which cell proliferation is reduced by half).
(§2) Various carcinoma cells were cultured at 37° C. in a humidified condition in the presence of 5% CO2. Each cell cultured in a 96-well cell culture plate was treated with the compound of the present invention and cultured for 72 hours.
(§3) In this example, in order to confirm the proliferation inhibitory effect on various cancer cells, Compound 121 was tested as follows.
(§4) The cells were cultured with a culture medium shown in Table 9 below at 37° C. in a humidified condition in the presence of 5% CO2. Each cell cultured in a 96-well cell culture plate was treated with the compound of the present invention and cultured for 72 hours.

Huh7 = assay: Cancer cell proliferation GI50 (CCK-8); assay type: cell-based; settings: Huh7 (Huh-7), liver cancer, 72 hours
Protocol: as §1, §2, §3, §4

MDA-MB-231 = assay: Cancer cell proliferation GI50 (CCK-8); assay type: cell-based; settings: MDA-MB-231, breast cancer, 72 hours
Protocol: as §1, §2, §3, §4

MDA-MB-468 = assay: Cancer cell proliferation GI50 (CCK-8); assay type: cell-based; settings: MDA-MB-468, breast cancer, 72 hours
Protocol: as §1, §2, §3, §4

HepG2 = assay: Cancer cell proliferation GI50 (CCK-8); assay type: cell-based, human; settings: HepG2, liver cancer, 72 hours
Protocol: as §1, §2, §3, §4

IC50 [1]: 9 nM
IC50 (MV-4-11 cells; Homo sapiens): 30.7 nM
SMILES: C[C@H](C(=O)Nc1ncc(C2CCC2)s1)c1cccc(-c2cnc(NC(=O)/C=C/CN(C)C)cn2)c1 [Compound 104, (S,E)-N-(5-(3-(1-((5-cyclobutylthiazol-2-yl)amino)-1-oxopropan-2-yl)phenyl)pyrazin-2-yl)-4-(dimethylamino)but-2-enamide]

IC50 [1]: 10.5 nM
IC50 (MV-4-11 cells; Homo sapiens): 7.1 nM
SMILES: CC(C(=O)Nc1ncc(C(F)(F)F)s1)c1cncc(-c2cnc(NC(=O)/C=C/CN(C)C)c(C#N)c2)c1 (stereo not drawn) [Compound 108, (E)-N-(5-cyano-5′-(1-oxo-1-((5-(trifluoromethyl)thiazol-2-yl)amino)propan-2-yl)-[3,3′-bipyridin]-6-yl)-4-(dimethylamino)but-2-enamide]

IC50 [1]: 17 nM
IC50 (HepG2 cells): 12.6 nM
SMILES: C[C@H](C(=O)Nc1ncc(C(F)(F)F)s1)c1cccc(-c2cnc(NC(=O)/C=C/CN3CC[C@@H](F)C3)cn2)c1 [Compound 115, (E)-4-((R)-3-fluoropyrrolidin-1-yl)-N-(5-(3-((S)-1-oxo-1-((5-(trifluoromethyl)thiazol-2-yl)amino)propan-2-yl)phenyl)pyrazin-2-yl)but-2-enamide]

IC50 [1]: 9 nM
IC50 (MDA-MB-468 cells; 72 hours): 44 nM
SMILES: C[C@H](C(=O)Nc1ncc(C(F)(F)F)s1)c1cccc(-c2cnc(NC(=O)/C=C/CN3CCC(O)C3)cn2)c1 (stereo partly drawn) [Compound 119, (E)-4-(3-hydroxypyrrolidin-1-yl)-N-(5-(3-((S)-1-oxo-1-((5-(trifluoromethyl)thiazolyl)amino)propan-2-yl)phenyl)pyrazin-2-yl)but-2-enamide]

IC50 [1]: 4 nM
IC50 (MDA-MB-468 cells; Homo sapiens, MDA-MB-468, 72 h): ≤ 14 nM
IC50 (MDA-MB-468 cells; 72 hours): 7 nM
SMILES: CCc1cnc(NC(=O)[C@@H](C)c2cccc(-c3cnc(NC(=O)/C=C/CN(C)C)c(F)c3)c2)s1 [Compound 130, (S,E)-4-(dimethylamino)-N-(5-(3-(1-((5-ethylthiazol-2-yl)amino)-1-oxopropan-2-yl)phenyl)-3-fluoropyridin-2-yl)but-2-enamide]

GI50 (Hep3B): 36 nM
GI50 (Huh7): 20 nM
GI50 (MDA-MB-231): 70 nM
GI50 (MDA-MB-468): 18 nM
GI50 (HepG2): 19 nM
SMILES: CN(C)C/C=C/C(=O)Nc1ccc(C(=O)N[C@@]2(C)CCC[C@@H](Nc3ncc(Cl)c(-c4c[nH]c5ccccc45)n3)C2)nc1 [SY-1365, reference compound]

Second part, the compound before the results:

SMILES: C=CC(=O)Nc1cncc(-c2cccc([C@H](C)C(=O)Nc3ncc(C4CC4)s3)c2)n1 [Compound 16]
Inhibition rate (%) (MDA-MB-468 cells; 72 hours): 53%
Inhibition rate (%) (MV-4-11 cells): 90%

SMILES: C=CC(=O)Nc1cnc(-c2cccc([C@H](C)C(=O)Nc3ncc(C4CC4)s3)c2)cn1 [Compound 22]
Inhibition rate (%) (MDA-MB-468 cells; 72 hours): 72%
Inhibition rate (%) (MV-4-11 cells): 100%

SMILES: C=CC(=O)Nc1ncc(-c2cccc([C@H](C)C(=O)Nc3ncc(C4CC4)s3)c2)cn1 [Compound 27]
Inhibition rate (%) (MDA-MB-468 cells; 72 hours): 74%
Inhibition rate (%) (MV-4-11 cells): 100%

SMILES: C=CC(=O)Nc1ccc(-c2cccc([C@H](C)C(=O)Nc3ncc(C4CC4)s3)c2)nn1 [Compound 28]
Inhibition rate (%) (MDA-MB-468 cells; 72 hours): 74%
Inhibition rate (%) (MV-4-11 cells): 100%

SMILES: C=CC(=O)Nc1ncc(-c2cccc([C@H](C)C(=O)Nc3ncc(C4CC4)s3)c2)cc1F [Compound 29]
Inhibition rate (%) (MDA-MB-468 cells; 72 hours): 75%
Inhibition rate (%) (MV-4-11 cells): 100%

SMILES: C=CC(=O)Nc1cnc(-c2cncc(C(C)C(=O)Nc3ncc(C(F)(F)F)s3)c2)cn1 (stereo not drawn) [Compound 45, N-(5-(5-(1-oxo-1-((5-(trifluoromethyl)thiazol-2-yl)amino)propan-2-yl)pyridin-3-yl)pyrazin-2-yl)acrylamide]
IC50 [1]: 22.7 nM
IC50 (MDA-MB-468 cells; Homo sapiens, MDA-MB-468, 72 h): ≤ 14 nM
IC50 (MDA-MB-468 cells; 72 hours): 9.5 nM
inhibition at 0.1 µM (MV-4-11 cells; Homo sapiens, MV4-11, MV-4-11, compound concentration 100 nM, read-out: Inhibition rate (%)): 100%
IC50 (MV-4-11 cells; Homo sapiens): 8 nM
IC50 (HepG2 cells): 8.3 nM

SMILES: C=CC(=O)Nc1ccc(-c2cncc(C(C)C(=O)Nc3ncc(C(F)(F)F)s3)c2)cn1 (stereo not drawn) [Compound 82, N-(5′-(1-oxo-1-((5-(trifluoromethyl)thiazol-2-yl)amino)propan-2-yl)-[3,3′-bipyridin]-6-yl)acrylamide]
IC50 [1]: 36 nM
IC50 (MV-4-11 cells; Homo sapiens): 9.1 nM

SMILES: CC(C(=O)Nc1ncc(C(F)(F)F)s1)c1cncc(-c2cnc(NC(=O)/C=C/CN3CC4CC3CO4)cn2)c1 (stereo not drawn) [Compound 83, (E)-4-(2-oxa-5-azabicyclo[2.2.1]heptan-5-yl)-N-(5-(5-(1-oxo-1-((5-(trifluoromethyl)thiazol-2-yl)amino)propan-2-yl)pyridin-3-yl)pyrazin-2-yl)but-2-enamide]
IC50 [1]: 23 nM
IC50 (MV-4-11 cells; Homo sapiens): 6.9 nM

SMILES: C[C@H](C(=O)Nc1ncc(C(F)(F)F)s1)c1cccc(-c2cnc(NC(=O)/C=C/CN3CC4CC3CO4)cn2)c1 (stereo partly drawn) [Compound 96, (E)-4-(2-oxa-5-azabicyclo[2.2.1]heptan-5-yl)-N-(5-(3-((S)-1-oxo-1-((5-(trifluoromethyl)thiazol-2-yl)amino)propan-2-yl)phenyl)pyrazin-2-yl)but-2-enamide]
IC50 [1]: 7.6 nM
IC50 (MV-4-11 cells; Homo sapiens): 43.9 nM

SMILES: C[C@H](C(=O)Nc1ncc(C(F)(F)F)s1)c1cccc(-c2cnc(NC(=O)/C=C/CN(C)C)c(F)c2)c1 [Compound 99, (S,E)-4-(dimethylamino)-N-(3-fluoro-5-(3-(1-oxo-1-((5-(trifluoromethyl)thiazol-2-yl)amino)propan-2-yl)phenyl)pyridin-2-yl)but-2-enamide]
IC50 [1]: 7.6 nM
IC50 (MV-4-11 cells; Homo sapiens): 12.7 nM

SMILES: C[C@H](C(=O)Nc1ncc(C(F)(F)F)s1)c1cccc(-c2cnc(NC(=O)/C=C/CN(C)C)c(C#N)c2)c1 [Compound 101, (S,E)-N-(3-cyano-5-(3-(1-oxo-1-((5-(trifluoromethyl)thiazol-2-yl)amino)propan-2-yl)phenyl)pyridin-2-yl)-4-(dimethylamino)but-2-enamide]
IC50 [1]: 4.3 nM
IC50 (MV-4-11 cells; Homo sapiens): 12.3 nM
